Where two headings read alike, the source gives them in different places.
Experiments:
[1] = tested on: human cervical carcinoma HeLa; assay: MTT cytotoxicity assay, 48 h; format: cell-based; conditions: for IC50: Homo sapiens, HeLa, MTT, 48 h, read-out: IC50, µM Cervix HeLa; for Selectivity index: HeLa: IC50 in hFF3 / IC50 in HeLa
Experimental: (§1) On the first step of the biological evaluation of novel GA derivatives 3a-h, 4a-h, and 5a-h, we analyzed their cytotoxicity in a panel of cultured mammalian cells, including human cervical carcinoma HeLa and KB-3-1, human duodenal carcinoma HuTu-80, human lung adenocarcinoma A549, murine melanoma B16 cell lines, and nontransformed human fibroblasts hFF3. The cells were treated with derivatives for 48 h and cell viability was evaluated by 3-(4, 5-dimethylthiazol-2-yl)-2, 5-diphenyltetrazolium bromide (MTT) assay. Since the studied compounds contain two types of functional groups at position 3-acetoxy- or the hydroxyl-group, 3-acetoxy-GA 1 and GA-Me were used as references. Additionally, hierarchical clustering of cytotoxic data was carried out in order to reveal groups of compounds with similar cytotoxic profiles (Figure 2A).
(§2) Human cervical carcinoma HeLa and KB-3-1 cells, human duodenal carcinoma HuTu-80 cells, and human lung adenocarcinoma A549 cells were obtained from the Russian Culture Collection (Institute of Cytology, RAS, St. Petersburg, Russia). Melanoma B16-F10 (hereafter, melanoma B16) cells were obtained from the Cell Culture Bank of the Blokhin National Medical Oncology Research Center (Moscow, Russia). Nonmalignant fibroblasts hFF3 and RAW264.7 macrophages were kindly provided by Dr. Olga A. Koval (Institute of Chemical Biology and Fundamental Medicine, SB RAS, Novosibirsk, Russia) and Prof. Dmitry Kuprash (Engelhardt Institute of Molecular Biology, RAS, Moscow, Russia), respectively. The cells were cultured in DMEM (Sigma-Aldrich Inc., St. Louis, MO, USA) supplemented with 10% (v/v) heat-inactivated fetal bovine serum (FBS) (BioloT, St. Petersburg, Russia) and antibiotic–antimycotic solution (100 U/mL penicillin, 100 µg/mL streptomycin, 0.25 µg/mL amphotericin). […] The cells were incubated at 37 °C in a humidified 5% CO2-containing air atmosphere (hereafter referred to as standard conditions). GA derivatives were dissolved in DMSO (stock solutions: 10 mM) and stored at −20 °C prior to use.
(§3) Cells were seeded in tetra- or pentaplicates in 96-well plates at a density of 10^4 (tumor cells and […] fibroblasts) or 10^5 (RAW264.7 cells) cells per well. Cells were incubated under standard conditions for 24 h, followed by their treatment with the investigated derivatives (0.5–50 µM) or corresponding concentrations of DMSO (control) for a further 48 h (tumor cells and fibroblasts) or 24 h (RAW264.7 cells). At the end of incubation period, 10 µL of MTT solution was added to the cells (final concentration: 0.5 mg/mL) and plates were incubated for an additional 2 h under standard conditions. Then, the MTT-containing medium was aspirated and formazan crystals formed in living cells were solubilized with 100 µL of DMSO. The absorbance of each well was read at test and reference wavelengths of 570 and 620 nm, respectively, on a Multiscan RC plate reader (Thermo LabSystems, Helsinki, Finland). The IC50 values (the concentration of compounds leading to a decrease of A570 to 50% of A570^control) were calculated by extrapolation of the dose–response curves. […] A heatmap of SI values was constructed by Microsoft Excel 2010.

[2] = tested on: human cervical carcinoma KB-3-1; assay: MTT cytotoxicity assay, 48 h; format: cell-based; conditions: for IC50: Homo sapiens, KB 3-1, MTT, 48 h, read-out: IC50, µM Cervix KB-3-1; for Selectivity index: KB-3-1: IC50 in hFF3 / IC50 in KB-3-1
Experimental: as §1, §2, §3

[3] = tested on: human duodenal carcinoma HuTu-80; assay: MTT cytotoxicity assay, 48 h; format: cell-based; conditions: for IC50: Homo sapiens, HuTu80, MTT, 48 h, read-out: IC50, µM Duodenum HuTu-80; for Selectivity index: HuTu-80: IC50 in hFF3 / IC50 in HuTu-80
Experimental: as §1, §2, §3

[4] = tested on: human lung adenocarcinoma A549; assay: MTT cytotoxicity assay, 48 h; format: cell-based; conditions: for IC50: Homo sapiens, A549, MTT, 48 h; for Selectivity index: A549: IC50 in hFF3 / IC50 in A549
Experimental: as §1, §2, §3

[5] = tested on: murine melanoma B16; assay: MTT cytotoxicity assay, 48 h; format: cell-based; conditions: for Selectivity index: B16: IC50 in hFF3 / IC50 in B16; for IC50: Mus musculus, MTT, 48 h
Experimental: as §1, §2, §3

[6] = tested on: nontransformed human fibroblasts hFF3; assay: MTT cytotoxicity assay, 48 h; format: cell-based; conditions: Homo sapiens, HFF-3, read-out: IC50, µM Fibroblast hFF3
Experimental: as §1, §2, §3

[7] = tested on: HeLa, KB-3-1, HuTu-80, A549, B16 and hFF3 cells; assay: MTT cytotoxicity, summary over the panel of cell lines; format: cell-based
Experimental: as §1, §3

[8] = tested on: carrageenan-induced peritonitis; assay: Carrageenan-induced peritonitis; format: in vivo, ICR mice; conditions: i.p. 1 h before carrageenan, 4 h
Experimental: To study the effect of 3d on carrageenan-induced peritonitis, ICR mice were injected with 1% carrageenan (250 μL) intraperitoneally (i.p.). Compound 3d (50 mg/kg), vehicle (10% Tween-80), dexamethasone (1 mg/kg) as a reference anti-inflammatory drug, and saline buffer were administered i.p. 1 h before peritonitis induction. The healthy uninflamed group (control) was injected i.p. by saline. Mice were sacrificed 4 h after carrageenan injection and their peritoneal cavities were washed with 2 mL of heparinized cold saline buffer to obtain peritoneal cells. The peritoneal exudates were collected and the total leukocyte counts were performed with a Neubauer chamber by optical microscopy after diluting the peritoneal fluid with Turk solution (1:20). To determine the differential leukocyte counts (total 100 cells), peritoneal cells were centrifuged and placed onto slides, stained with azur–eosin by Romanovsky–Giemsa and examined by optical microscopy. The results were expressed as the number of total leukocytes (×10^5 cells/mL) and the percentages of subpopulations of neutrophils, lymphocytes, and monocytes.

[9] = tested on: carrageenan-induced paw edema; assay: Carrageenan-induced paw edema; format: in vivo, ICR mice; conditions: gastric gavage 1 h before carrageenan, 5 h after induction; 3d 50 mg/kg, indomethacin 20 mg/kg
Experimental: To induce paw edema, ICR mice were injected with 1% carrageenan (50 μL) on the plantar side of the right hind paw. […] Mice were sacrificed 5 h after induction of paw edema. The percent of edema weight in carrageenan-injected compound-treated groups in comparison to that in vehicle-treated control group was calculated according to the formula: % Edema=(M1−M2/M2)^compound/∑n(M1−M2/M2)^vehicle×n×100%, where M1 is the weight of the paw with carrageenan-induced edema; M2 is the weight of the intact paws; compound and vehicle correspond to the compound- and vehicle-treated phlogogen-injected mice, respectively; and n is the number of mice in the control group (n = 9). Furthermore, paw material was collected for subsequent histological analysis.
For histological analysis, the specimens of intact and edema paws from each animal were dehydrated in ascending ethanol and xylol and embedded in HistoMix paraffin (BioVitrum, Russia). Paraffin sections (5 μm) were sliced on a Microm HM 355S microtome (Thermo Fisher Scientific, Waltham, MA, USA) and stained with hematoxylin and eosin. Images were obtained using an Axiostar Plus microscope equipped with an Axiocam MRc5 digital camera (Zeiss, Oberkochen, Germany) at ×100 and ×400 magnifications.

[10] = median over all tested cell lines, read-out: median IC50

Structure (SMILES) | IC50 [1] [µM] | Selectivity index: HeLa [1] | IC50 [2] [µM] | Selectivity index: KB-3-1 [2] | IC50 [3] [µM] | Selectivity index: HuTu-80 [3] | IC50 [4] [µM] | Selectivity index: A549 [4] | Selectivity index: B16 [5] | IC50 [5] [µM] | IC50 [6] [µM] | IC50 [7, 10] [µM] | melting point | cytotoxicity in all tested cell lines [7] | IC50 ([7]; read-out: IC50 values with respect to all tested cell lines) [µM] | distribution of leukocyte subpopulations in peritoneal fluid [8] | decrease of the total leukocyte number in peritoneal exudates ([8]; 3d 50 mg/kg, dexamethasone 1 mg/kg) [fold] | decrease of the weight of edema compared with vehicle-treated mice [9]
CC(=O)O[C@H]1CC[C@@]2(C)C(CC[C@]3(C)C2C(=O)C=C2[C@@H]4C[C@@](C)(c5nc(-c6ccccn6)no5)CC[C@]4(C)CC[C@]23C)C1(C)C (stereo partly drawn) [Compound 4f, 30-nor-3β-acetoxy-11-oxo-20-(3′-(pyridin-2′′-yl)-1′,2′,4′-oxadiazol-5′-yl)-18βH-olean-12-en] | 17.9 ± 7.7 | 0.6 | 10.3 ± 1.2 | 1.1 | 11.4 ± 1 | 1.0 | 40.3 ± 4.1 | 0.3 | 1.9 | 6 ± 2.3 | 11.5 ± 1 | 11.5 | 293.5 to 297.9 °C |  |  |  |  | 
CC(=O)O[C@H]1CC[C@@]2(C)C(CC[C@]3(C)C2C(=O)C=C2[C@@H]4C[C@@](C)(c5nc(-c6cccnc6)no5)CC[C@]4(C)CC[C@]23C)C1(C)C (stereo partly drawn) [Compound 4g, 30-nor-3β-acetoxy-11-oxo-20-(3′-(pyridin-3′′-yl)-1′,2′,4′-oxadiazol-5′-yl)-18βH-olean-12-en] | > 50 |  | 9.5 ± 0.5 | > 5.3 | 5.8 ± 0.5 | > 8.6 | 49.7 ± 4.5 | >1.0 |  | > 50 | > 50 | 49.9 | 253.2 °C (dec.) |  |  |  |  | 
CC(=O)O[C@H]1CC[C@@]2(C)C(CC[C@]3(C)C2C(=O)C=C2[C@@H]4C[C@@](C)(c5nc(-c6ccncc6)no5)CC[C@]4(C)CC[C@]23C)C1(C)C (stereo partly drawn) [Compound 4h, 30-nor-3β-acetoxy-11-oxo-20-(3′-(pyridin-4″-yl)-1′,2′,4′-oxadiazol-5′-yl)-18βH-olean-12-en] | > 50 |  | > 50 |  | 49.7 ± 2.4 | >1.0 | > 50 |  |  | > 50 | > 50 |  | 265.3 to 267.3 °C | nontoxic | ≥ 50 |  |  | 
CC(C)c1noc([C@@]2(C)CC[C@]3(C)CC[C@]4(C)C(=CC(=O)C5[C@@]6(C)CC[C@H](O)C(C)(C)C6CC[C@]54C)[C@@H]3C2)n1 (stereo partly drawn) [Compound 5c, 30-nor-3β-hydroxy-11-oxo-20-(3′-isopropyl-1′,2′,4′-oxadiazol-5′-yl)-18βH-olean-12-en] | 2.6 ± 0.1 | 2.2 | 5.9 ± 0.1 | 0.9 | 9.5 ± 0.5 | 0.6 | 4.5 ± 1.1 | 1.2 | 0.8 | 6.6 ± 0.1 | 5.6 ± 1 | 5.8 | 216.4 to 219.7 °C |  |  |  |  | 
CC(C)(C)c1noc([C@@]2(C)CC[C@]3(C)CC[C@]4(C)C(=CC(=O)C5[C@@]6(C)CC[C@H](O)C(C)(C)C6CC[C@]54C)[C@@H]3C2)n1 (stereo partly drawn) [Compound 5d, 30-nor-3β-hydroxy-11-oxo-20-(3′-tert-butyl-1′,2′,4′-oxadiazol-5′-yl)-18βH-olean-12-en] | 3.7 ± 0.9 | 5.8 | 22.3 ± 3.7 | 1.0 | 8.8 ± 1.1 | 2.5 | 23.5 ± 6.3 | 0.9 | 1.9 | 11.3 ± 1.9 | 21.6 ± 3.4 | 16.5 | 227.8 °C (dec.) |  |  |  |  | 
CC1(C)C2CC[C@]3(C)C(C(=O)C=C4[C@@H]5C[C@@](C)(c6nc(-c7ccccc7)no6)CC[C@]5(C)CC[C@]43C)[C@@]2(C)CC[C@@H]1O (stereo partly drawn) [Compound 5e, 30-nor-3β-hydroxy-11-oxo-20-(3′-phenyl-1′,2′,4′-oxadiazol-5′-yl)-18βH-olean-12-en] | 20.3 ± 2.2 | > 2.5 | > 50 |  | > 50 |  | > 50 |  |  | > 50 | > 50 |  | 231.7 to 232.1 °C | nontoxic |  |  |  | 
C[C@@H]1C[C@H]2[C@@H]3CCC4=CC(=O)C=C[C@]4(C)[C@@]3(F)[C@@H](O)C[C@]2(C)[C@@]1(O)C(=O)CO [dexamethasone, reference compound] |  |  |  |  |  |  |  |  |  |  |  |  |  |  |  | did not affect the distribution of the leukocyte subpopulation | 1.8 | 
COc1ccc2c(c1)c(CC(=O)O)c(C)n2C(=O)c1ccc(Cl)cc1 [indomethacin, reference compound] |  |  |  |  |  |  |  |  |  |  |  |  |  |  |  |  |  | three-fold

From paper PMC7279002, “Novel 3′-Substituted-1′,2′,4′-Oxadiazole Derivatives of 18βH-Glycyrrhetinic Acid and Their O-Acylated Amidoximes: Synthesis and Evaluation of Antitumor and Anti-Inflammatory Potential In Vitro and In Vivo” (International Journal of Molecular Sciences, 2020)
